The subject of test [1] is MEFs. In words: Adhesion complex (focal adhesion) formation assay, vinculin/actin immunofluorescence. It counts as cell-based, mouse. Particulars: 200 nM BIM; MEFs prespread on 50K. How it is done:
(§1) For immunofluorescence, 13-mm diameter glass coverslips, placed into 6-well plates, were derivatized for 30 minutes with 1 mM sulpho-m-maleimidobenzoyl-N-hydrosuccinimide ester (Perbio). For spreading on mab13 monoclonal antibody, coverslips were pre-coated with 10 μg/ml goat anti-Rat IgG FC fragment (Jackson, Stratech Scientific). For biochemical assays, 6-well tissue culture-treated plastic plates (Corning BV) were coated directly with ligand. Coverslips or dishes were coated for 2 hours at room temperature with 10 μg/ml 50K, H/0, PLL or mab13 in Dulbecco's PBS containing calcium and magnesium (Lonza), and blocked with 10 mg/ml heat-denatured BSA for 30 minutes at room temperature (Humphries et al., 1986). Equivalent ligand-coating between glass and plastic was tested by ELISA using the anti-fibronectin mAb 333 (Bass et al., 2007a). To prevent de novo synthesis of ECM and other syndecan-4 ligands, cells were treated with 25 μg/ml cycloheximide (Sigma) for 2 hours prior to detachment (Couchman et al., 1983) and were then detached with 0.5 mg/ml trypsin. […] Images were compiled and analyzed using ImageJ software. The total area of adhesion complexes per cell was calculated by recording the area of fluorescence intensity above an empirically determined threshold, following rolling ball background subtraction. […]

Test [2] has as its system Rac1. Kind of test: GTPase activation assay: Rac1 effector pull-down with quantitative Western blotting. Type of test: cell-based, mouse. Particulars: 200 nM BIM, 30 min before and throughout stimulation; MEFs prespread on 50K. On the procedure:
as §1
(In western blotting, separated proteins are transferred to a membrane and probed.)

Test [3] has as its target T1, human β1 integrin (Homo sapiens, UniProt P05556).
T1 construct: endogenous in cells; host or cells: K562 human lymphocytes
Kind of test: Flow cytometry of integrin activity with 12G10 antibody on K562 cells. It counts as cell-based. Particulars: 1 mM Mn^2+ rather than 1 mM Ca^2+, 0.5 mM Mg^2+. How it is done: For analysis of integrin activity by flow cytometry, K562 suspension cells were stimulated with ultrasound for 20 minutes, followed by centrifugation and re-suspension in ice cold media. Cells were stained with primary antibody (12G10), diluted to 10 μg/ml in Dulbecco's PBS containing calcium and magnesium (Lonza), 0.02% (w/v) sodium azide on ice for 1 hour. The cells were washed with PBS, 1% (v/v) fetal bovine serum, followed by 10 μg/ml secondary antibody diluted in PBS, 10% (v/v) fetal bovine serum for 30 minutes. For manganese stimulation all antibodies and wash buffers were supplemented with 1 mM MnCl2. Cells were then fixed with 2% (w/v) paraformaldehyde, and analysed on a Dako Cyan flow cytometer, using an excitation wavelength of 488 nm. A 530/30 nm bandpass filter was used to detect the emissions.

The values below come from patent publication US20090216158A1, “ULTRASOUND AND TISSUE REPAIR” (priority 2008, published 2009).

As for `CN(C)CCCn1cc(C2=C(c3c[nH]c4ccccc34)C(=O)NC2=O)c2ccccc21` [BIM, bisindolylmaleimide I], in test [1], the “effect on focal adhesion formation in response to H/0” value is given as “blocked focal adhesion formation in response to H/0”. Further, the “effect on ultrasound-induced Rac1 activation” value in test [2] is “did not prevent ultrasound-induced Rac1 activation”.

On to `[Cl][Mn][Cl]` [Mn^2+, MnCl2], for which the “staining of K562 lymphocytes with 12G10 (β1 integrin activation epitope)” value in test [3] was “enhanced”.
